Test results reported in EP0688218B1, “INTERLEUKIN-1 INHIBITOR” (OTSUKA PHARMACEUTICAL CO., LTD., priority 1993, dated 1994).

Experiments:
IL-1α = test: Inhibition of LPS-stimulated IL-1α release in heparinized peripheral blood culture (ELISA); type: cell-based, human; settings: Dose 3 x 10^-5 g/ml; 10% heparinized peripheral blood from healthy volunteer; LPS 3.3 µg/ml; 18 - 24 hours
Description: (§1) Method: A 10% heparinized prepheral blood from healthy volunteer, a test compound and lipopolysaccharide (LPS, 3.3 µg/ml) were suspended in RPMI-1640 medium supplemented with penicillin 100 units/ml and streptomycin […], and the mixture was incubated in a 5% CO2 atmosphere at 37°C for 18 - 24 hours. The supernatant of the culture was collected by centrifugation.
(§2) The IL-1α and IL-1β isolated from cells by stimulation with LPS were measured by enzyme-linked immunoassay (ELISA). That is, 96-well ELISA plate was coated with a mouse monoclonal antibody against human IL - 1α or human IL-1β, followed by blocking treatment, and thereto was added a test sample and it was subjected to reaction. […] After removing the unbound POD-conjugated antibody by washing, a substrate solution (containing ortho-phenylenediamine and hydrogen peroxide) was added and subjected to reaction, and thereafter, the absorbance at 492 nm was measured, and thereby the amounts of IL-1α and IL-1β were measured based on each standard curve. The ratio (%) of inhibition of IL-1 release was calculated by the following equation: IL-1 release inhibitory ratio (%) = 100 x (1-T/C) [formula] wherein T means the amount of IL-1 in the supernatant of culture incorporated with the test compound, and C means the amount of IL-1 in the supernatant of culture added only with the solvent.

IL-1β = test: Inhibition of LPS-stimulated IL-1β release in heparinized peripheral blood culture (ELISA); type: cell-based, human; settings: Dose 3 x 10^-5 g/ml; 10% heparinized peripheral blood from healthy volunteer; LPS 3.3 µg/ml; 18 - 24 hours
Description: as §1, §2

Row | Structure (SMILES) | IL-1α release inhibitory ratio (IL-1α) [%] | IL-1β release inhibitory ratio (IL-1β) [%]
1 | Cc1c(F)c(N2CCNC(C)C2)cc2c1c(=O)c(C(=O)O)cn2C1CC1 (stereo not shown) [Test compound 1, 7-(3-Methyl-1-piperazinyl)-1-cyclopropyl-6-fluoro-5-methyl-1,4-dihydro-4-oxoquinoline-3-carboxylic acid] | 93 | 96
2 | CC1CCc2c(N3CCC(O)CC3)c(F)cc3c(=O)c(C(=O)O)cn1c23 (stereo not shown) [Test compound 2, 9-Fluoro-8-(4-hydroxy-1-piperidinyl)-5-methyl-6,7-dihydro-1-oxo-1H,5H-benzo[ji]quinolidine-2-carboxylic acid] | 82 | 78
